Data from patent US20160051560A1, “TREATMENTS INVOLVING ESLICARBAZEPINE OR ESLICARBAZEPINE ACETATE” (BIAL - PORTELA & Cª, S.A., priority 2013, published 2016).

Experiments:
[1] = tested on: patients with bipolar I disorder who responded to treatment in the acute phase studies; assay: Study BIA-2093-205: recurrence prevention study (2-week open-label Part I, double-blind fixed dose Part II); assay type: in vivo, human; conditions: for Patient worsening status according to CGI-BP Scale: No worsening / Patient worsening status according to CGI-BP Scale: Worsening: Part II; for Patient worsening status according to CGI-BP Scale: No worsening / Patient worsening status according to CGI-BP Scale: Worsening / median time to withdrawal / patients who withdrew / proportion of patients with MADRS scores ≧18 (depressive symptomatology) / proportion of patients with YMRS scores ≧15 (manic symptomatology) / mean (SD) highest mood scores (patient e-diary, 100-point visual analogue scale) / mean (SD) overall lowest mood scores (patient e-diary, 100-point visual analogue scale): ITT; for mean (SD) highest mood scores (patient e-diary, 100-point visual analogue scale) / mean (SD) overall lowest mood scores (patient e-diary, 100-point visual analogue scale) / patients who withdrew (AE section; withdrawing because of AEs): double-blind period
Description: Part I followed an open-label design in which all participants received treatment with ESL 900 mg QD for 2 weeks. Part II followed a double-blind, parallel-group, fixed multiple dose design in which participants were randomly assigned (1:1:1) to one of the following treatment groups: (1) ESL 1800 mg QD, (2) ESL 900 mg QD, and (3) ESL 300 mg QD. […] The occurrence of a new manic/depressive episode was considered a treatment failure, and the patient was discontinued from the study.
If the patient had—in change from preceding phase scale—a score of 5, 6, or 7 in any of 3 categories (mania, depression, or overall bipolar disorder), the illness was considered to have worsened. Secondary efficacy variables included: proportion of patients developing manic symptomatology (YMRS score ≧15); proportion of patients developing depressive symptomatology (MADRS score ≧18); the highest and lowest mood state, collected in the patient diary card; and time to withdrawal. All efficacy assessments were evaluated at each study visit.
Mood was self-evaluated in a 100-point visual analogue scale using the DiaryPRO™ software (Invivodata®, Inc.) implemented on a touch-screen device (Palm™ OS). Patients completed their training in the e-diary use in V1 and were assisted by the study staff when necessary. Data were collected and transferred from the patient's home to the study server on a daily basis.
(§1) Medical history and demographic information was obtained at the screening visit. A complete physical and neurological examination was performed at screening, V7 or early discontinuation (EDV), V8 and post-study visit (PSV). Vital signs (pulse rate and blood pressure) were determined at every visit. […] Clinically significant abnormalities in laboratory tests, vital signs or 12-lead ECG were considered as AEs.
(§2) Safety was evaluated based on the occurrence of AEs. AEs were documented by the investigator with reference to intensity, dates of occurrence and resolution, outcome and relation to the treatment (causality). Furthermore, each AE was classified as being serious or non-serious. All patients with AEs were followed until their resolution. AEs were coded according to the Medical Dictionary for Regulatory Activities (MedDRA).
Proportions of patients were compared between treatment groups using a Cochran-Mantel-Haenszel (CMH) test stratified by region. […] In all analyses, if the treatment effect was significant (p<0.05) pairwise comparisons were to be performed to assess the differences.
Changes in total YMRS, CGI-BP and MADRS scores were tested by analysis of covariance (ANCOVA) using baseline score value, region, treatment and region-by-treatment interaction as covariates; Dunnett's multiple comparison procedure was used for the comparison of the treatment means. ANCOVA was used to evaluate the change in YMRS score from baseline to the end of the 3-week treatment period, the CGI-BP score at the end of the 3-week treatment period, the MADRS score at the end of the 3-week treatment period, and the highest and lowest mood states (the mean highest and lowest score for each patient was calculated for intervals of 28 calendar days).
Survival analysis was performed using log-rank test/Kaplan-Meier and Cox proportional hazards model.

[2] = tested on: patients with acute manic (including mixed) episode, bipolar I disorder; assay: Adverse events, Studies BIA-2093-203 and BIA-2093-204 together (safety population); assay type: in vivo, human
Description: as §1, §2
Three study populations were defined for the statistical analyses: safety, intent to treat (ITT), and per protocol (PP). The safety population consisted of all patients who received at least one dose of investigational product. The ITT population consisted of all randomised patients who had at least one post-baseline efficacy assessment. The PP population consisted of all patients who complied with the study protocol without major deviations.

[3] = Part II Double-Blind Period, ESL 300 mg, n = 35
[4] = Part II Double-Blind Period, ESL 900 mg, n = 26
[5] = Part II Double-Blind Period, ESL 1800 mg, n = 26
[6] = ESL 600 mg, n = 72, Studies 203 and 204

With `CC(=O)O[C@H]1Cc2ccccc2N(C(N)=O)c2ccccc21` [ESL, (S)-10-acetoxy-10,11-dihydro-5H-dibenz[b,f]azepine-5-carboxamide] the “Patient worsening status according to CGI-BP Scale: No worsening” value ([1]; ESL 300 mg QD, n = 34) was 26 (76.5) n (%), the “Patient worsening status according to CGI-BP Scale: Worsening” value ([1]; ESL 300 mg QD, n = 34) was 6 (17.6) n (%) and the “serious AE: mania” value ([1]; ESL 300 mg group) was 2 cases. The “proportion of patients who prematurely discontinued” value ([1]; ESL 300 mg group (n=19)) was 54.3%, the “median time to withdrawal” value ([1]; ESL 300 mg group) was 254 days and the patients who withdrew ([1]; ESL 300 mg group) was 52.9%. For the same molecule, the “proportion of patients with MADRS scores ≧18 (depressive symptomatology)” value (“proportion … (depressive symptomatology)” below) ([1]; ESL 300 mg) was 14.7%, the “proportion of patients with YMRS scores ≧15 (manic symptomatology)” value (“proportion … (manic symptomatology)” below) ([1]; ESL 300 mg) was 8.8% and the “mean (SD) highest mood scores (patient e-diary, 100-point visual analogue scale)” value ([1]; ESL 300 mg) was 49.2 (11.0). The “mean (SD) overall lowest mood scores (patient e-diary, 100-point visual analogue scale)” value ([1]; ESL 300 mg) was 45.9 (10.4), the “Patient worsening status according to CGI-BP Scale: No worsening” value ([1]; ESL 900 mg QD, n = 25) was 14 (56.0) n (%) and the “Patient worsening status according to CGI-BP Scale: Worsening” value ([1]; ESL 900 mg QD, n = 25) was 10 (40.0) n (%). For the same molecule, the “serious AE: anaemia” value ([1]; ESL 900 mg group) was 1 case, the “serious AE: disease progression” value ([1]; ESL 900 mg group) was 1 case and the “serious AE: oesophageal stenosis” value ([1]; ESL 900 mg group) was 1 case. For the same molecule, the “serious AE: pneumonia” value ([1]; ESL 900 mg group) was 1 case, the “proportion of patients who prematurely discontinued” value ([1]; ESL 900 mg group (n=14)) was 53.8% and the “median time to withdrawal” value ([1]; ESL 900 mg group) was 295 days. For the same molecule, the patients who withdrew ([1]; ESL 900 mg group) was 52.0%, the “proportion … (depressive symptomatology)” value ([1]; ESL 900 mg) was 0.0% and the “proportion … (manic symptomatology)” value ([1]; ESL 900 mg) was 16.0%. For the same molecule, the “mean (SD) highest mood scores (patient e-diary, 100-point visual analogue scale)” value ([1]; ESL 900 mg) was 50.6 (6.4), the “mean (SD) overall lowest mood scores (patient e-diary, 100-point visual analogue scale)” value ([1]; ESL 900 mg) was 47.3 (12.4) and the “Patient worsening status according to CGI-BP Scale: No worsening” value ([1]; ESL 1800 mg QD, n = 26) was 16 (61.5) n (%). The “Patient worsening status according to CGI-BP Scale: Worsening” value ([1]; ESL 1800 mg QD, n = 26) was 6 (23.1) n (%), the “serious AE: bronchitis” value ([1]; ESL 1800 mg group) was 1 case and the “serious AE: depression” value ([1]; ESL 1800 mg group) was 1 case. For the same molecule, the “serious AE: disease progression” value ([1]; ESL 1800 mg group) was 1 case, the “proportion of patients who prematurely discontinued” value ([1]; ESL 1800 mg group (n=19)) was 73.1% and the “median time to withdrawal” value ([1]; ESL 1800 mg group) was 109 days. The patients who withdrew ([1]; ESL 1800 mg group) was 73.1%, the “proportion … (depressive symptomatology)” value ([1]; ESL 1800 mg) was 11.5% and the “proportion … (manic symptomatology)” value ([1]; ESL 1800 mg) was 19.2%. For the same molecule, the “mean (SD) highest mood scores (patient e-diary, 100-point visual analogue scale)” value ([1]; ESL 1800 mg) was 55.1 (10.4), the “mean (SD) overall lowest mood scores (patient e-diary, 100-point visual analogue scale)” value ([1]; ESL 1800 mg) was 51.1 (12.3) and the “patients who showed no worsening according to the CGI-BP scale” value ([1]; ITT population, all treatment groups (300, 900, 1800 mg), no significant dose difference (p=0.250)) was “at least 50%”. For the same molecule, the “Any Adverse Events” value ([1]; Part I Open-Label Period, ESL 900 mg, n = 104) was 20 (19.2) Number (%) of patients, the Agitation [1, 3] was 2 (5.7) Number (%) of patients and the “Any Adverse Events” value [1, 3] was 14 (40.0) Number (%) of patients. For the same molecule, the Aspartate amino-transferase increased [1, 3] was 0 (0.0) Number (%) of patients, the “Blood creatine phosphokinase increased” value [1, 3] was 1 (2.9) Number (%) of patients and the Bronchitis [1, 3] was 0 (0.0) Number (%) of patients. For the same molecule, the Depression [1, 3] was 3 (8.6) Number (%) of patients, the Dizziness [1, 3] was 0 (0.0) Number (%) of patients and the Mania [1, 3] was 2 (5.7) Number (%) of patients. The Nausea [1, 3] was 0 (0.0) Number (%) of patients, the Sinus tachycardia [1, 3] was 2 (5.7) Number (%) of patients and the Agitation [1, 4] was 0 (0.0) Number (%) of patients. For the same molecule, the “Any Adverse Events” value [1, 4] was 14 (53.8) Number (%) of patients, the Aspartate amino-transferase increased [1, 4] was 0 (0.0) Number (%) of patients and the “Blood creatine phosphokinase increased” value [1, 4] was 0 (0.0) Number (%) of patients. The Bronchitis [1, 4] was 1 (3.8) Number (%) of patients, the Depression [1, 4] was 3 (11.5) Number (%) of patients and the Dizziness [1, 4] was 0 (0.0) Number (%) of patients. The Mania [1, 4] was 0 (0.0) Number (%) of patients, the Nausea [1, 4] was 0 (0.0) Number (%) of patients and the Sinus tachycardia [1, 4] was 1 (3.8) Number (%) of patients. For the same molecule, the Agitation [1, 5] was 1 (3.8) Number (%) of patients, the “Any Adverse Events” value [1, 5] was 18 (69.2) Number (%) of patients and the Aspartate amino-transferase increased [1, 5] was 2 (7.7) Number (%) of patients. The “Blood creatine phosphokinase increased” value [1, 5] was 3 (11.5) Number (%) of patients, the Bronchitis [1, 5] was 2 (7.7) Number (%) of patients and the Depression [1, 5] was 1 (3.8) Number (%) of patients. For the same molecule, the Dizziness [1, 5] was 3 (11.5) Number (%) of patients, the Mania [1, 5] was 0 (0.0) Number (%) of patients and the Nausea [1, 5] was 3 (11.5) Number (%) of patients. For the same molecule, the Sinus tachycardia [1, 5] was 0 (0.0) Number (%) of patients, the deaths ([1]; all treatment groups) was “No deaths occurred” and the “patients who withdrew (AE section; withdrawing because of AEs)” value ([1]; ESL 300 mg group (n=3)) was 8.6%. For the same molecule, the “patients who withdrew (AE section; withdrawing because of AEs)” value ([1]; ESL 900 mg group (n=3)) was 11.5%, the “patients who withdrew (AE section; withdrawing because of AEs)” value ([1]; ESL 1800 mg group (n=1)) was 3.8% and the “patients with AEs” value ([1]; open-label period, ESL 900 mg QD (20 patients)) was 19.2%. For the same molecule, the “number of AEs reported” value ([1]; open-label period, ESL 900 mg QD, in 20 patients) was 42 AEs, the “premature discontinuation because of treatment failure” value ([1]; overall (n=22), similar proportions between treatment groups) was 21.2% and the “patients completed 6 months of treatment” value ([1]; overall, of 104 patients enrolled in Part I (n=35)) was 33.7%. For the same molecule, the “incidence of treatment-related AEs” value ([1]; recurrence prevention study, comparable between treatment groups) was < 25 % of patient, the “serious AE: leukopenia and hyponatremia” value ([2]; ESL 600 mg) was 1 case and the “Any Adverse Events” value [2, 6] was 38 (52.8) Number (%) of patients. For the same molecule, the Diarrhoea [2, 6] was 8 (11.1) Number (%) of patients, the Dizziness [2, 6] was 7 (9.7) Number (%) of patients and the Headache [2, 6] was 8 (11.1) Number (%) of patients. The Nausea [2, 6] was 2 (2.8) Number (%) of patients, the Paraesthesia oral [2, 6] was 0 (0.0) Number (%) of patients and the Somnolence [2, 6] was 2 (2.8) Number (%) of patients. The Vomiting [2, 6] was 4 (5.6) Number (%) of patients and the “incidence of treatment-related AEs” value ([2]; studies BIA-2093-203 and BIA-2093-204, comparable between treatment groups) was < 35 % of patients.
